Results reported in patent publication EP0853484B1, “NOVEL MU OPIOID RECEPTOR LIGANDS: AGONISTS AND ANTAGONISTS” (priority 1995, dated 1996).
Non-standard residues stand in square brackets, D forms with d. No end group written: not given here.

How the values were obtained:
κ receptors = biological target: T1, κ receptors (Cavia porcellus, UniProt P41144); experiment: Radioreceptor assay selective for κ receptors ([3H]-U69,593, guinea pig brain homogenates); type: binding; settings: ratio of κ IC50 to µ IC50
T1 construct: tissue homogenates prepared from guinea pig brains (cortex and cerebellum); tissue Harlan Bioproducts for Science; host or cells: guinea pig brain (cortex and cerebellum) homogenate
Protocol: Assays selective for κ receptors were carried out using [^3H]-U69,593 (3 nM, specific activity 62 Ci/mmol) as the radioligand and tissue homogenates prepared from guinea pig brains (cortex and cerebellum) using Tris buffer containing 100 µM PMSF, 5 mM MgCl2 and 1 mg/ml BSA, pH 7.4. Sample tubes were incubated for 2.5 hr.

δ receptors = biological target: T2, δ receptors (Rattus norvegicus, UniProt P33533); experiment: Radioreceptor assay selective for δ receptors ([3H]-naltrindole, rat brain homogenates); type: binding; settings: ratio of δ IC50 to µ IC50
T2 construct: performed using rat brain homogenates as above; tissue Harlan Bioproducts for Science; host or cells: rat brain crude membrane homogenate
Protocol: Radioreceptor assays selective for δ receptors were performed using rat brain homogenates as above and [^3H]-naltrindole (0.5 nM, specific activity 34.7 Ci/mmol) as radioligand in Tris buffer containing 100 µM phenylmethylsulfonyl fluoride (PMSF), 5 mM MgCl2 and 1 mg/ml bovine serum albumin (BSA), pH 7.4. Samples were incubated for 2.5 hr. Standard curves were prepared using 0.10-3200 nM [^3H]-D-Pen2, Pen5]-enkephalin ([^3H]-DPDPE).

MU RECEPTOR = experiment: Agonist or antagonist activity by either the adenylyl cyclase assay or the GPI assay (not stated which)

T2 sequence (P33533 whole entry): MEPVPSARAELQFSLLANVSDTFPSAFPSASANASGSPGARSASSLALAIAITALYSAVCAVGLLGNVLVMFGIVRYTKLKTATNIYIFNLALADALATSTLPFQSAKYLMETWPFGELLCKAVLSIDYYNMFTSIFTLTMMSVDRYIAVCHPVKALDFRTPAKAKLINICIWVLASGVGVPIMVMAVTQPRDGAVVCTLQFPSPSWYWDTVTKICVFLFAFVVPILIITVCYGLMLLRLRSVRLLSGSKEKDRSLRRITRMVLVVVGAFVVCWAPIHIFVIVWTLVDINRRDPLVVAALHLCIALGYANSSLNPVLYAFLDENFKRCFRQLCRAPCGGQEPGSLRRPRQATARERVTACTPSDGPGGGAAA
T1 sequence (P41144 whole entry): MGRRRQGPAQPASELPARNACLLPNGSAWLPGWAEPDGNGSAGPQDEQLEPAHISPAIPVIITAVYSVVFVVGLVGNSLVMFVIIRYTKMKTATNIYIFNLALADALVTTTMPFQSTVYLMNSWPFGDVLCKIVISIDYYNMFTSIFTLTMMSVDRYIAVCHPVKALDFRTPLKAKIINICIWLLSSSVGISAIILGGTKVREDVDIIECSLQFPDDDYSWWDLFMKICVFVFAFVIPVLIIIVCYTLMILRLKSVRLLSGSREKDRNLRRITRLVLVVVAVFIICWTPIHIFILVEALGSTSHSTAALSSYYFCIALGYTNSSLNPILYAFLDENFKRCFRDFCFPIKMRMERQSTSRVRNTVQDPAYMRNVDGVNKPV

Substance	κ/µ (κ receptors)	δ/µ (δ receptors)	AGONIST OR ANTAGONIST (MU RECEPTOR)
[D-Ala^2,MePhe^4,Gly-ol^5]enkephalin [DAMGO]	844	253	–
[dI][dM][dT][dW]G[dP]-NH2 [SEQ ID NO. 130]	–	–	Agonist
